The values below are quoted from earlier work in patent US4150121A, “Kinin containing injection composition” (THERA Gesellschaft fur Patentverwertung mbH, priority 1976, dated 1979).

Where a SMILES comes first, the peptide text is derived from it.

For this data set the following is noted: intracutaneous injection.

Take `NC(N)=NCCC[C@H](NC(=O)[C@H](Cc1ccccc1)NC(=O)[C@@H]1CCCN1C(=O)[C@H](CO)NC(=O)[C@H](Cc1ccccc1)NC(=O)CNC(=O)[C@@H]1CCCN1C(=O)[C@@H]1CCCN1C(=O)[C@@H](N)CCCN=C(N)N)C(=O)O` [Bradykinin, (NH2) arginine - proline - proline -glycine - phenylalanine - serine - proline - phenylalanine - arginine (COOH)] (H-RPPGFSPFR-OH): the “amount causing vehement pain reactions” value is “about 0.1 microgram in 1 milliliter of solution”. “kallidin: decapeptide kinin: Brady kinin extended at the amino end by an additional lysine residue”: the “amount causing vehement pain reactions” value was “about 0.1 microgram in 1 milliliter of solution”.
